Active and inactive are the calls of the source. How the calls were made is not given here.
Assay: PubChem AID 624076
Conditions: Carna kinase panel, IMAP FP / mobility shift, at 10 µM, active compounds read high

inhibition (ABL(E255K)): -4.01% (inactive)
inhibition (ABL(T315I)): 0.608% (inactive)
inhibition (AKT2): 0.755% (inactive)
inhibition (AKT3): 0.416% (inactive)
inhibition (ALK(L1196M)): 2.33% (inactive)
inhibition (ALK(R1275Q)): 2.67% (inactive)
inhibition (ARG): -1.1% (inactive)
inhibition (AXL): 4.36% (inactive)
inhibition (AurB): 6.59% (inactive)
inhibition (AurC): 6.9% (inactive)
inhibition (BRAF, cascade assay): 10.8% (inactive)
inhibition (BRK): -0.572% (inactive)
inhibition (BRSK1): 4.37% (inactive)
inhibition (BTK): -2.3% (inactive)
inhibition (CDK9/CycT1): 20.5% (inactive)
inhibition (CHK2): 6.76% (inactive)
inhibition (CK1e): 0.145% (inactive)
inhibition (CK1g1): 0.48% (inactive)
inhibition (CK1g2): 2.84% (inactive)
inhibition (CK2a2/b): -4.08% (inactive)
inhibition (CK1d): -0.463% (inactive)
inhibition (CLK1): 15.1% (inactive)
inhibition (CLK2): 22.8% (inactive)
inhibition (CLK3): 5.11% (inactive)
inhibition (CRIK): 0.502% (inactive)
inhibition (CaMK2b): 2.08% (inactive)
inhibition (CaMK4): 2.19% (inactive)
inhibition (CaMK1d): 0.058% (inactive)
inhibition (DAPK1): 1.44% (inactive)
inhibition (DCAMKL2): 3.11% (inactive)
inhibition (DLK, cascade assay): -3.03% (inactive)
inhibition (DYRK1A): 13.9% (inactive)
inhibition (DYRK1B): 52.5%
inhibition (DYRK2): -4.58% (inactive)
inhibition (EGFR(L861Q)): -0.865% (inactive)
inhibition (EML4-ALK): 1.03% (inactive)
inhibition (EPHA3): -0.86% (inactive)
inhibition (EPHA5): -0.402% (inactive)
inhibition (EPHA8): -3.88% (inactive)
inhibition (EPHB1): 3.24% (inactive)
inhibition (EPHB4): 2.47% (inactive)
inhibition (FGFR1): 4.17% (inactive)
inhibition (FGFR3(K650E)): 2.8% (inactive)
inhibition (FGFR3(K650M)): 1.1e-14% (inactive)
inhibition (FGFR4(N535K)): 0.356% (inactive)
inhibition (FGFR4(V550L)): 4.09% (inactive)
inhibition (FGFR4): 5.54% (inactive)
inhibition (FLT4): 9% (inactive)
inhibition (FMS): -0.377% (inactive)
inhibition (GSK3a): 101%
inhibition (HER4): -0.972% (inactive)
inhibition (HIPK1): 8.84% (inactive)
inhibition (HIPK3): 3.54% (inactive)
inhibition (HIPK4): 7.81% (inactive)
inhibition (Haspin): -1.27% (inactive)
inhibition (IGF1R): -2.57% (inactive)
inhibition (IKKb): -2.12% (inactive)
inhibition (IRAK4): -2.34% (inactive)
inhibition (IRR): -1.56% (inactive)
inhibition (JAK2): -0.539% (inactive)
inhibition (JAK3): 8.04% (inactive)
inhibition (JNK1): -1.99% (inactive)
inhibition (JNK2): 3.84% (inactive)
inhibition (JNK3): 2.16% (inactive)
inhibition (KIT(T670I)): 8.36% (inactive)
inhibition (KIT(V560G)): 3.59% (inactive)
inhibition (KIT): 6.69% (inactive)
inhibition (LATS2): 3.09% (inactive)
inhibition (LOK): 8.66% (inactive)
inhibition (LTK): 11.1% (inactive)
inhibition (LYNa): 15.1% (inactive)
inhibition (MAP2K3, cascade assay): 6.17% (inactive)
inhibition (MAP2K4, cascade assay): 0.115% (inactive)
inhibition (MAP3K4, cascade assay): 7.41% (inactive)
inhibition (MAP3K5, cascade assay): 14.4% (inactive)
inhibition (MAP4K2): 7.36% (inactive)
inhibition (MARK2): 39.1% (inactive)
inhibition (MARK4): 48.6% (inactive)
inhibition (MELK): 7.87% (inactive)
inhibition (MER): 8.36% (inactive)
inhibition (MGC42105): 0.183% (inactive)
inhibition (MINK): -2.54% (inactive)
inhibition (MLK1, cascade assay): 17.6% (inactive)
inhibition (MLK2, cascade assay): 4.73% (inactive)
inhibition (MLK3, cascade assay): 1.88% (inactive)
inhibition (MSK1): 3.83% (inactive)
inhibition (MST2): -3.85% (inactive)
inhibition (MST4): -1.67% (inactive)
inhibition (NDR1): -0.193% (inactive)
inhibition (NEK1): 0.375% (inactive)
inhibition (NEK2): 0.761% (inactive)
inhibition (NEK6): 3.82% (inactive)
inhibition (NEK7): -4.5% (inactive)
inhibition (PAK3): 33.4% (inactive)
inhibition (PAK4): 17.6% (inactive)
inhibition (PAK5): 14.9% (inactive)
inhibition (PASK): 3.87% (inactive)
inhibition (PBK): 0.885% (inactive)
inhibition (PDGFRa(V561D)): 2.12% (inactive)
inhibition (PEK): -3.83% (inactive)
inhibition (PGK): 0.119% (inactive)
inhibition (PHKG1): 5.52% (inactive)
inhibition (PIK3CA/PIK3R1): -2.01% (inactive)
inhibition (PIM2): 0.406% (inactive)
inhibition (PIM3): 8.57% (inactive)
inhibition (PKACg): 1.21% (inactive)
inhibition (PKCa): 4.41% (inactive)
inhibition (PKCb2): 9.38% (inactive)
inhibition (PKCd): 8.65% (inactive)
inhibition (PKCg): 5.54% (inactive)
inhibition (PKD1): -0.973% (inactive)
inhibition (PKD2): 0.969% (inactive)
inhibition (PKD3): 5.41% (inactive)
inhibition (PKN1): 23.4% (inactive)
inhibition (PLK1): 0.912% (inactive)
inhibition (PRKX): -1.49% (inactive)
inhibition (RET(S891A)): 16.1% (inactive)
inhibition (RET(Y791F)): 2.31% (inactive)
inhibition (ROCK1): 6.72% (inactive)
inhibition (ROCK2): 2.67% (inactive)
inhibition (ROS): 82.7%
inhibition (RSK1): 8.92% (inactive)
inhibition (RSK2): 10.7% (inactive)
inhibition (RSK4): 10.3% (inactive)
inhibition (SGK3): 0.498% (inactive)
inhibition (SIK): 3.03% (inactive)
inhibition (SLK): 10.4% (inactive)
inhibition (SRC): 4% (inactive)
inhibition (SRM): -2.09% (inactive)
inhibition (SRPK1): 13.7% (inactive)
inhibition (SYK): -0.473% (inactive)
inhibition (TAK1-TAB1, cascade assay): 3.32% (inactive)
inhibition (TIE2): 4.15% (inactive)
inhibition (TNK1): 3.87% (inactive)
inhibition (TRKA): 54.8%
inhibition (TSSK3): 0% (inactive)
inhibition (TYK2): -1.6% (inactive)
inhibition (WNK2): -0.427% (inactive)
inhibition (p38a): 1.28% (inactive)
inhibition (p38d): 15.7% (inactive)
SMILES: COc1ccccc1[C@@H]1C2=C(CC(C)(C)CC2=O)Nc2n[nH]c(C(F)(F)F)c21
